Measured values reported in patent publication US6642355B2, “Endothelin-antagonizing peptide” (priority 1991, dated 2003).
Where two headings read alike, the source gives them in different places. Bridge positions count the residues as written; N and C are the ends. Square brackets hold non-standard residues; d marks the D form. Ends that are not written are not given here. Peptide text beside a SMILES is read from it. 2Nal = N[C@@H](Cc1ccc2ccccc2c1)C(=O)O

Tests used:
endothelin-3 = assay: Effect against airway contraction due to endothelin in anesthetized guinea pigs; type: in vivo; details: guinea pig; for Rate of inhibition (%) of airway contraction, earlier phase 30 seconds: 30 seconds after endothelin-3; for Rate of inhibition (%) of airway contraction, later phase 3 minutes: 3 minutes after endothelin-3
Procedure: The in vivo effect of the compounds according to the present invention against airway contraction was evaluated according to a slightly modified version of the method of C. Touvay et al. described in European Journal of Pharmacology, 176, 23-33, 1990. That is, male Hartley guinea pigs weighing 350 to 550 grams each which had been previously β-blocked by intravenous injection of propranolol (3 mg/kg) were anesthetized, bronchial cannula were inserted therein and fixed, and connected to an artificial respirator. Next, spontaneous breathing was stopped with 10 mg/kg Gallamine triethiodide (product of sigma Co.), administered intravenously after which artificial respiration was initiated at a determined rate. A respiration volume measuring device was connected to the bronchial cannula bypass, and the change in the air flow was measured as an indication of airway contraction. Endothelin-3 (1.5 μmol/l; product of Peptide Institute, Inc.) was intravenously injected at a dose of 0.1 ml per 100 g body weight. Airway contraction (air flow increase) was observed immediately after injection, and was followed by a diphasic airway contraction reaction with an early and late phase which peaked at 30 seconds and 3 minutes, respectively.
Rate of inhibition (%)=(1−b/a)×100 a: Airway contraction without injection of Compound (I-1) (control) b: Airway contraction with injection of Compound (I-1)

endothelin receptor [1] = biological target: T1, endothelin receptor (Bos taurus, UniProt P28088); assay: Endothelin receptor-antagonizing effect: 125I-endothelin-1 binding to bovine cerebellar tissue membrane fraction
T1 construct: from tissue; host or cells: bovine cerebellar membrane fraction
T1 sequence (P28088 27-441): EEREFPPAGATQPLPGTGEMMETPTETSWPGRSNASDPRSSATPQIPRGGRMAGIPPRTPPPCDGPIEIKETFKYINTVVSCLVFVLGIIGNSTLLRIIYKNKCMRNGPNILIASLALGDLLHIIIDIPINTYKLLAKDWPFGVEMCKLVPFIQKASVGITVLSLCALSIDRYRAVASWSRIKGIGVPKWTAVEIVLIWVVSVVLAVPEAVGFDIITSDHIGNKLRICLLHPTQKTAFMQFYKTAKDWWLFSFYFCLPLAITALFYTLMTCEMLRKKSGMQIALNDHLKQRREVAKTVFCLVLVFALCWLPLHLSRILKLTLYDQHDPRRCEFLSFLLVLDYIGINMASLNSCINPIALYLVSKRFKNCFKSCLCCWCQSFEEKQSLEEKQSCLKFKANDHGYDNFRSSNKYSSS

endothelin receptor [2] = biological target: T2, endothelin receptor (Bos taurus, UniProt P21450); assay: Endothelin receptor-antagonizing activity: 125I-endothelin-1 binding to bovine lung membrane fraction with […] Compound (I-1) added
T2 construct: the suspension was used as the membrane fraction liquid; from tissue
T2 sequence (P21450 21-427): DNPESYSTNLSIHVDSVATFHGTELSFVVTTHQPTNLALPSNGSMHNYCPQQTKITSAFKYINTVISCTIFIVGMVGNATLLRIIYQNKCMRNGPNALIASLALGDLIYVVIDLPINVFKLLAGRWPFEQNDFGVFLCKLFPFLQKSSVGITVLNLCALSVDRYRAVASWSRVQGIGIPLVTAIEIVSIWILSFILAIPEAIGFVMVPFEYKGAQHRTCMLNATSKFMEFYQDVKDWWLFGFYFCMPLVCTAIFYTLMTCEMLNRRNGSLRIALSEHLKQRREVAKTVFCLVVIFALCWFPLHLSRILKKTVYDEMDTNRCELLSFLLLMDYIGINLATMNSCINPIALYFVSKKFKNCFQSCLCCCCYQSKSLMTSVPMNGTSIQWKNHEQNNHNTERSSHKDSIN
Procedure: Bovine lung tissue was homogenized at 4° C. using POLYTRON (type PT10/35, manufactured by Kinematica GmbH Co.) in a buffer solution A (pH 8.3) comprising 1 mM NaHCO3, 5 mM ethylenediaminetetraacetic acid, 5 μg/ml leupeptin, 5 μg/ml pepstatin A and 40 μM phenylmethylsulfonyl fluoride.
The inhibition rate against endothelin receptor binding activity was calculated according to the following equation.
Inhibition rate=(C−A/C−B)=100 (%)

[3] = biological target: endothelin receptor of bovine cerebellar tissue (membrane fraction) (bovine); assay: 125I-endothelin-1 displacement, bovine cerebellar membrane fraction
[4] = biological target: endothelin receptor of bovine cerebellar tissue (membrane fraction) (bovine); assay: as above; remark: listed apart in the source
[5] = biological target: endothelin receptor of bovine lung tissue (membrane fraction) (bovine); assay: 125I-endothelin-1 displacement, bovine lung membrane fraction with 1.5 ug/ml Compound (I-1) added
[6] = bovine cerebellar tissue membrane fraction

In the case of C[C@@H]1NC(=O)[C@H]([C@@H](C)O)NC(=O)CNC(=O)[C@H](Cc2c[nH]cn2)NC(=O)[C@H](Cc2c[nH]c3ccccc23)NC(=O)[C@H](CC(N)=O)NC(=O)CNC(=O)C[C@@H](C(=O)N[C@@H](Cc2c[nH]c3ccccc23)C(=O)N[C@@H](Cc2ccccc2)C(=O)N[C@@H](Cc2ccccc2)C(=O)N[C@@H](CC(N)=O)C(=O)N[C@@H](Cc2ccc(O)cc2)C(=O)N[C@@H](Cc2ccc(O)cc2)C(=O)N[C@@H](Cc2c[nH]c3ccccc23)C(=O)O)NC(=O)[C@@H]2CCCN2C1=O [Compound I-1], the “Rate of inhibition (%) of airway contraction, earlier phase 30 seconds” value (endothelin-3; 0.1 mg/kg i.v.) is reported as 12.5%, the “Rate of inhibition (%) of airway contraction, later phase 3 minutes” value (“Rate of inhibition (%) … later phase 3 minutes” for short) (endothelin-3; 0.1 mg/kg i.v.) is reported as 44.0% and the “Rate of inhibition (%) of airway contraction, earlier phase 30 seconds” value (endothelin-3; 0.3 mg/kg i.v.) is reported as 46.0%. For the same molecule, the “Rate of inhibition (%) … later phase 3 minutes” value (endothelin-3; 0.3 mg/kg i.v.) was 52.7%, the “Rate of inhibition (%) of airway contraction, earlier phase 30 seconds” value (endothelin-3; 1.0 mg/kg i.v.) was 91.8% and the “Rate of inhibition (%) … later phase 3 minutes” value (endothelin-3; 1.0 mg/kg i.v.) was 78.2%.

Molecule CC[C@H](C)[C@H](NC(=O)[C@H](CC(N)=O)NC(=O)[C@H](Cc1ccc(O)cc1)NC(=O)[C@H](Cc1ccc(O)cc1)NC(=O)[C@H](CC(N)=O)NC(=O)[C@H](Cc1ccccc1)NC(=O)[C@H](Cc1ccccc1)NC(=O)[C@H](Cc1c[nH]c2ccccc12)NC(=O)[C@@H]1CC(=O)NCC(=O)N[C@@H](CC(N)=O)C(=O)N[C@@H](Cc2c[nH]c3ccccc23)C(=O)N[C@@H](Cc2c[nH]cn2)C(=O)NCC(=O)N[C@@H]([C@@H](C)O)C(=O)N[C@@H](C)C(=O)N2CCC[C@H]2C(=O)N1)C(=O)N[C@H](C(=O)N[C@@H](Cc1c[nH]c2ccccc12)C(=O)O)[C@@H](C)CC [Compound I-39] (GNWHGTAPDWFFNYYNIIW-OH; lactam N-9) has an IC50 (endothelin receptor [1]; [6]) of over 72 nM.

Work on C[C@@H]1NC(=O)[C@H]([C@@H](C)O)NC(=O)CNC(=O)[C@H](Cc2c[nH]cn2)NC(=O)[C@H](Cc2c[nH]c3ccccc23)NC(=O)[C@H](CC(N)=O)NC(=O)CNC(=O)C[C@@H](C(=O)O)NC(=O)[C@@H]2CCCN2C1=O [Compound I-14] (GNWHGTAPD-OH; lactam N-9) yielded an IC50 (endothelin receptor [1]) of over 1000 nM.

For CC[C@H](C)[C@H](NC(=O)[C@H](CC(=O)O)NC(=O)[C@H](CC(C)C)NC(=O)[C@H](Cc1c[nH]cn1)NC(=O)[C@H](C)NC(=O)[C@H](Cc1ccccc1)NC(=O)[C@H](Cc1ccc(O)cc1)NC(=O)[C@@H](NC(=O)[C@H](Cc1c[nH]c2ccccc12)NC(=O)[C@H](CC(=O)O)NC(=O)[C@@H]1CCCN1C(=O)[C@H](C)NC(=O)[C@@H](NC(=O)CNC(=O)[C@H](Cc1c[nH]cn1)NC(=O)[C@H](Cc1c[nH]c2ccccc12)NC(=O)[C@H](CC(=O)O)NC(=O)CN)[C@@H](C)O)C(C)C)C(=O)N[C@H](C(=O)N[C@@H](Cc1c[nH]c2ccccc12)C(=O)O)[C@@H](C)CC [Compound I-43], the IC50 (endothelin receptor [1]) was 0.63 nM.

For CC(C)[C@H](NC(=O)[C@H](Cc1c[nH]c2ccccc12)NC(=O)[C@@H]1CC(=O)NCC(=O)N[C@@H](CC(N)=O)C(=O)N[C@@H](Cc2c[nH]c3ccccc23)C(=O)N[C@@H](Cc2c[nH]cn2)C(=O)NCC(=O)N[C@@H]([C@@H](C)O)C(=O)N[C@@H](C)C(=O)N2CCC[C@H]2C(=O)N1)C(=O)N[C@@H](Cc1ccc(O)cc1)C(=O)N[C@@H](Cc1ccccc1)C(=O)N[C@@H](C)C(=O)N[C@@H](Cc1ccccc1)C(=O)N[C@@H](Cc1ccccc1)C(=O)N[C@@H](CC(N)=O)C(=O)N[C@@H](Cc1ccc(O)cc1)C(=O)N[C@@H](Cc1ccc(O)cc1)C(=O)N[C@@H](Cc1c[nH]c2ccccc12)C(=O)O [Compound I-33] (GNWHGTAPDWVYFAFFNYYW-OH; lactam N-9), the IC50 (endothelin receptor [1]; [6]) was over 40 nM.

With C[C@@H]1NC(=O)[C@H]([C@@H](C)O)NC(=O)CNC(=O)[C@H](Cc2c[nH]cn2)NC(=O)[C@H](Cc2c[nH]c3ccccc23)NC(=O)[C@H](CC(N)=O)NC(=O)CNC(=O)C[C@@H](C(=O)N[C@@H](Cc2c[nH]c3ccccc23)C(=O)N[C@@H](Cc2ccccc2)C(=O)N[C@@H](Cc2ccccc2)C(=O)N[C@@H](CC(N)=O)C(=O)N[C@@H](Cc2ccc(O)cc2)C(=O)N[C@@H](Cc2ccc(O)cc2)C(=O)N[C@@H](Cc2c[nH]c3ccccc23)C(=O)OCc2ccccc2)NC(=O)[C@@H]2CCCN2C1=O [Compound I-47] the IC50 (endothelin receptor [1]; [6]) was 140 nM and the IC50 (endothelin receptor [2]) was over 470 nM.

C[C@@H]1NC(=O)[C@H]([C@@H](C)O)NC(=O)CNC(=O)[C@H](Cc2c[nH]cn2)NC(=O)[C@H](Cc2c[nH]c3ccccc23)NC(=O)[C@H](CC(N)=O)NC(=O)[C@@H](N)CSSC[C@@H](C(=O)N[C@@H](Cc2c[nH]c3ccccc23)C(=O)N[C@@H](Cc2ccccc2)C(=O)N[C@@H](Cc2ccccc2)C(=O)N[C@@H](CC(N)=O)C(=O)N[C@@H](Cc2ccc(O)cc2)C(=O)N[C@@H](Cc2ccc(O)cc2)C(=O)N[C@@H](Cc2c[nH]c3ccccc23)C(=O)O)NC(=O)[C@@H]2CCCN2C1=O [Compound I-7] (H-CNWHGTAPCWFFNYYW-OH; disulfide 1-9) gave an IC50 (endothelin receptor [1]) of over 5000 nM.

Molecule CC[C@H](C)[C@H](NC(=O)[C@H](Cc1c[nH]c2ccccc12)NC(=O)[C@@H]1CC(=O)NCC(=O)N[C@@H](CC(N)=O)C(=O)N[C@@H](Cc2c[nH]c3ccccc23)C(=O)N[C@@H](Cc2c[nH]cn2)C(=O)NCC(=O)N[C@@H]([C@@H](C)O)C(=O)N[C@@H](C)C(=O)N2CCC[C@H]2C(=O)N1)C(=O)N[C@H](C(=O)N[C@@H](Cc1c[nH]c2ccccc12)C(=O)O)[C@@H](C)CC [Compound I-27] (GNWHGTAPDWIIW-OH; lactam N-9) has an IC50 (endothelin receptor [1]) of over 6000 nM.

C[C@@H]1NC(=O)[C@H]([C@@H](C)O)NC(=O)CNC(=O)[C@H](Cc2c[nH]cn2)NC(=O)[C@H](Cc2c[nH]c3ccccc23)NC(=O)[C@H](CC(N)=O)NC(=O)CNC(=O)C[C@@H](C(=O)N[C@@H](Cc2c[nH]c3ccccc23)C(=O)O)NC(=O)[C@@H]2CCCN2C1=O [Compound I-15] (GNWHGTAPDW-OH; lactam N-9) gave an IC50 (endothelin receptor [1]) of over 900 nM.

GNWHGTAPDWFFNYY[2Nal]-OH (lactam N-9) [Compound (I-49)] showed an IC50 [3] of 6.3 nM.

Molecule GNWHGTAPDWFFNYYWVYFAHLDIIW (lactam N-9) [Compound (I-20)] has an IC50 [3] of 300 nM.

GNWHGTAPDWFFNYYWW (lactam N-9) [Compound (I-18)] was tested, and the IC50 [3] was 36 nM.

GNWHGTAPDWFFNYY (lactam N-9) [Compound (I-17)] showed an IC50 [3] of 54 nM.

GNWHGTSPDWFFNYYW (modifications not checked) [Compound (I-3)] showed an IC50 [4] of 5 nM.

B1: Compound (I-45) (peptide)
peptide: GNWHGTAPDWFFNYY
modifications: lactam Gly 1 N-terminus to Asp 9 side chain; C-terminal carboxyl of Tyr 15 amidated with Trn, 2-(3-indolyl)ethylamine
Work on B1 yielded an IC50 [3] of 50 nM and an IC50 [5] of 300 nM.

GNWHGTAPDWFFNYYWWFFNYYW (lactam N-9) [Compound (I-19)] showed an IC50 [3] of 370 nM.
